Source: the METLIN SMRT retention time set (Domingo-Almenara et al. 2019)

Assay: gradient 5% acetonitrile 3 min, to 50% in 2 min, to 85% in 15 min, held 3 min, 100 µL/min
Conditions: column: Zorbax Extend-C18 2.1 x 50 mm; eluents: water / acetonitrile, 0.1% formic acid
In short: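 A Zorbax Extend-C18 column (2.1 × 50 mm, 1.8 μm) run at 100 μL/min with water and acetonitrile, both containing 0.1% formic acid, separated mixtures of ~100 pure standards. The HPLC was coupled to a quadrupole time-of-flight mass spectrometer operated in positive and negative ionization mode, with dead and dwell volumes of 40 μL and 900 μL. Each retention time was taken from a computationally picked adduct peak that was then manually inspected.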

RP-LC retention time [s]	Structure (SMILES)
537	O=C(NC1CCc2nnc(C3CC3)n2CC1)c1cnco1 (stereo unspecified)
657	Cc1cc(C)cc(C(=O)N2CCN(c3nnc4ccccn34)CC2)c1
615	O=C(NCCc1ccccc1)N1CCN(c2cnn3cnnc3c2)CC1
669	Cc1ccc(-n2ncc3c(NCCN(C)C)ncnc32)cc1Cl
555	O=C(CN1CCN(c2ccccn2)CC1)Nc1nccs1
669	COCCNC(=O)N1CCCN(C2=NS(=O)(=O)C(c3ccc(F)cc3)=C2C)CC1
579	COCCOCC(=O)N1[C@@H]2CC[C@H]1CC(NC(=O)c1cnc(C)cn1)C2 (stereo partly specified)
598	O=C(CN1CCc2[nH]c3c(Cl)cccc3c(=O)c2C1)NCc1ccccc1
839	COC(=O)c1cccc(Nc2c(-c3ccc([N+](=O)[O-])cc3)nc3cnccn23)c1
799	O=C(CSc1cn(CC(=O)N2CCCCCC2)c2ccccc12)NCC1CCCO1 (stereo unspecified)
668	CN(C)CCCNC(=O)C1CCN(c2nc3ccc(-c4ccccc4)nc3s2)CC1
1220	CCOc1nc2ccccc2nc1N1CCCC(C(=O)Nc2ccc(F)cc2F)C1 (stereo unspecified)
654	COc1ccc2[nH]c3c(c2c1)CCNC3c1ccc(C)cc1 (stereo unspecified)
796	C[C@]12CCC3=C4CCC(=O)C=C4CC[C@H]3[C@@H]1CC[C@@]2(O)CC#N
754	CCCCOc1ccc(-c2cc3c(N4CCN(C)CC4)nccn3n2)cc1
814	Fc1cc(F)cc(-c2nnc(Cc3nc(-c4ccccn4)no3)o2)c1
1250	COc1ccccc1-c1nc(Cn2nnc(-c3nc(-c4cccc(C(F)(F)F)c4)no3)c2C)c(C)o1
712	CC(C)(C(N)=O)c1ccccc1
747	CC(=O)Nc1nc2ccc(CC(=O)NCCc3c[nH]c4ccc(Cl)cc34)cc2s1
779	O=C(NCC1CCCO1)c1ccc(-c2cnc(Oc3ccccc3)nc2)cc1 (stereo unspecified)
798	COc1ccc(-c2noc(CN3N=NC4C(=O)N(c5ccc(OC)c(OC)c5)C(=O)C43)n2)cc1OC (stereo unspecified)
608	COCCN1C(=O)CS(=O)C12CCN(C(=O)Nc1ccc3c(c1)OCCO3)CC2 (stereo unspecified)
869	CCn1cc(S(=O)(=O)Nc2ccc(C)cc2F)c2cccnc21

RP-LC retention time [s]	Structure (SMILES)
825	Cc1noc(C)c1Cc1ccc(C(=O)N2CCCC2c2nc(CCOCC3CC3)no2)o1 (stereo unspecified)
1020	O=S(=O)(NC1CCCCC1)c1ccc(-c2nnc(C3CCCC3)o2)o1
858	CC(C)CNC(=O)N1CC(c2nc(-c3ccccc3)no2)C2(CCOCC2)C1 (stereo unspecified)
566	COCC(=O)N1C[C@@H]2CCCN3CCC[C@@H]([C@H]23)[C@H]1CCCC(=O)NCC1CC1
690	Cc1ccc(NC(=O)Cn2ccc3ccc(-c4nnc(C)o4)cc32)nc1
611	Cc1nc2ccn(Cc3cccs3)c(=O)c2cc1C(=O)N1CCN(c2ccccn2)CC1
681	NC(=O)C1(c2ccccc2F)CC1
732	Cc1noc(C)c1CCNC(=O)CCCN1C(=O)CCn2nc(-c3cn(C)c4ccccc34)cc21
604	Cn1cnnc1SCC(=O)N1CCc2ccccc21
935	O=C(c1ccc(-c2cccs2)nc1)N1CCN(c2ccccc2)CC1
804	Cc1ccc(Nc2c(-c3cccc(Cl)c3)nc3ccc(C)cn23)cc1
572	COCCC1CCN(C(=O)c2ccc3nc[nH]c3c2)CC1
783	COc1cccc(NC(=O)C2CCN(S(=O)(=O)c3ccc4[nH]c(=O)sc4c3)CC2)c1
838	Cc1nc(CC(=O)Nc2ccc(Cl)cc2F)cs1
1120	Cc1ccc(-c2nc(NC(=O)c3cc(C)on3)sc2C)c(C)c1
977	CC1CCCN(S(=O)(=O)c2ccc(-c3nnc(C(C)C)o3)o2)C1 (stereo unspecified)
625	Cc1cc(N2CCOCC2)nc(N2CCN(C(=O)C3CCCCC3)CC2)n1
908	COc1ccccc1-c1noc(C2CCCN2C(=O)Nc2cccc(SC)c2)n1 (stereo unspecified)
754	Cc1ccc(NC(=O)Cn2nc3nc(N4CCSCC4)ccn3c2=O)cc1C
603	CC1CCCCC12NCCN=C2NCc1ccc(F)cc1 (stereo unspecified)
1000	Cc1nc(-c2ccccc2)nc2c1CCC(=O)N2Cc1ccco1
761	CC(C)N1CCn2c(nc3cc(C(=O)NCc4ccc(Br)cc4)ccc32)C1=O
758	O=C(Cc1ccc(Cl)cc1)N1CCC2(C1)C(=O)Nc1ccccc12 (stereo unspecified)

RP-LC retention time [s]	Structure (SMILES)
626	Cc1cc(C)c2c(N3CCOCC3)nc(C(=O)N3CCC(C)CC3)nc2n1
636	COc1cc(C(=O)Nc2c(-c3ccccc3)nc3ccccn23)cc(OC)c1OC
671	COc1ccc2c(c1)c(CN1CCC(C(=O)NCCc3ccco3)CC1)cn2C
617	CCOc1ccc(N2CC(NC(=O)NCCc3ccc(S(N)(=O)=O)cc3)CC2=O)cc1 (stereo unspecified)
588	NC(=O)C1(N2CCCCC2)CCN(C(=O)c2c(-c3ccccc3)nnc3ccccc23)CC1
774	O=C(NCc1csc(C2CCCN(C(=O)C3CCCCC3)C2)n1)C1CCC1 (stereo unspecified)
792	O=C(c1cccs1)N1CCc2ccc([N+](=O)[O-])cc2C1
1250	Cc1ccc(-c2nc(-c3cccc(-c4ccnn4C)c3)no2)cc1F
1080	COc1ccc(Cl)cc1NC(=O)C1CCCN(S(=O)(=O)c2cc(-c3noc(C)n3)cs2)C1 (stereo unspecified)
957	O=C(Nc1ccccc1)c1cc(C2CC2)n2nccc2n1
548	O=C1CCC(C(=O)N2CCN(c3ccc(-n4cccn4)nn3)CC2)N1 (stereo unspecified)
634	CCCC(=O)Nc1ccc(-n2cnc(C(=O)NCC)c2)nc1
742	Cc1cc(C(=O)NCCc2c[nH]c3ccccc23)c2c(=O)n(C)c(=O)n(C)c2n1
996	CCc1nc(-c2ccc3c(c2)CCN3C(=O)Cc2cc(OC)cc(OC)c2)no1
710	CCCn1c(C)cnc1C1CN(S(=O)(=O)c2ccc(C)c(Cl)c2)C1
648	O=C(Nc1ccc2c(c1)OCCO2)c1cc(-c2ccccn2)n[nH]1
793	CC(C)(Oc1ccc(Cl)cc1)C(=O)Nc1nnc(C2CC(=O)N(c3ccccc3)C2)o1 (stereo unspecified)
623	COc1ccccc1CN1CCN(C(=O)C2CCc3nc(N4CCCCC4)ncc3C2)CC1 (stereo unspecified)
704	COc1cc(NC(=O)Cn2nc3n(c2=O)CCCCC3)cc(OC)c1
976	COCCn1cc2c3c(cccc31)CN(C(=O)c1ccc(Br)o1)CC2
1040	Cc1[nH]c(C(=O)N2CCN(c3ccccc3F)CC2)c(C)c1S(=O)(=O)N1CCC(C)CC1
673	CCOC(=O)c1cnc2nc(C)ccc2c1Nc1ccccc1
1130	CCCCS(=O)(=O)N1CCc2nc(-c3ccc(Cl)cc3)ncc2C1

RP-LC retention time [s]	Structure (SMILES)
680	Cc1cc(C(=O)NC2CCCC2)nn1C
829	COc1cc(NC(=O)Cn2c(C)cc(-c3nnc(C4CC4)o3)c2C)cc(OC)c1
590	C(=N/NC1=NCCN1)/c1c2ccccc2c(/C=N\NC2=NCCN2)c2ccccc12
1040	COc1cc(OC)cc(C(=O)Nc2nc(-c3ccc4c(c3)N(C)C(=O)C(C)O4)cs2)c1 (stereo unspecified)
921	Brc1ccc(Nc2c(-c3ccc4c(c3)OCO4)nc3cnccn23)cc1
679	CCCNC(=O)C1CCN(C(=O)CCc2c(C)[nH]c(C(=O)OCC)c2C)CC1
1200	CCCN(CCC)S(=O)(=O)c1ccc(C)cc1
667	CCCNC(=O)C1CCN(c2ccc(SCC(=O)Nc3cc(F)ccc3C)nn2)CC1
868	CCCN1C(=O)c2c(C(=O)NCc3ccc(Cl)cc3)ncn2CC1(C)C(=O)NCCC(C)C (stereo unspecified)
684	O=C1NC2=C(C(=O)N(CCC3=CCCCC3)C2)C(c2ccccc2F)N1 (stereo unspecified)
994	CN(Cc1ccccc1)C(=O)CN1c2ccc(F)cc2-c2ccccc2S1(=O)=O
937	O=C(c1ccc2ccccc2n1)N1CCC(Oc2ccccc2)C1 (stereo unspecified)
643	CCOC(=O)c1noc2nc(C)nc(N3CCN(c4ccccc4)CC3)c12
566	COc1cccc(CCC(=O)N2C[C@@H]3C[C@H](NS(C)(=O)=O)[C@H]2C3)c1
878	Cc1[nH]c(C(=O)N2CCC(CC(=O)NCc3ccc(Cl)cc3)CC2)c(C)c1C(=O)OC(C)C
600	CC(C)CN1CCn2cc(C(=O)NC3CCCCC3)nc2C1
664	Cn1c(N2CCCN(C(=O)c3ccc(Br)cc3)CC2)cc(=O)n(C)c1=O
600	O=C(NCCn1cccn1)c1nn(CCOc2ccccc2)c2c1CNCC2
705	COc1ccc(-c2cnc(SCC(=O)Nc3cc(C)on3)n2Cc2ccco2)cc1
802	COc1ccccc1-c1nnc(-c2cccc(S(=O)(=O)N3CCOCC3)c2)o1
1070	Cc1ccc(-n2ccnc(NC(=O)Nc3cccc(F)c3)c2=O)cc1C
740	CC(=O)N1CCc2cc(N3CC(C(=O)Nc4ccc(F)c(C)c4)CC3=O)ccc21 (stereo unspecified)
